Experimental findings from BindingDB's records for doi:10.1016/S0960-894X(01)80994-X (1993) are described below.

In general, IC50 refers to the point on the concentration scale where inhibition reaches its midpoint. Low values mean higher potency, high ones lower potency.

Where a SMILES comes first, the peptide text is derived from it. The star is where a group is joined. Cbz = O=C(OCc1ccccc1)*

This test is described as follows: Inhibition of putative Endothelin-converting enzyme partially purified from rabbit lung membranes.
Compound `COC(=O)[C@H](Cc1c[nH]c2ccccc12)NC(=O)[C@H](CC(C)C)NC(=O)[C@H](CS)NC(=O)OCc1ccccc1` [2-[(S)-2-((R)-2-Benzyloxycarbonylamino-3-mercapto-propionylamino)-4-methyl-pentanoylamino]-3-(1H-indol-3-yl)-propionic acid (S)-methyl ester] (Cbz-Cys-Leu-Trp-OMe) came in with an IC50 of 31 µM. The compound `CC(C)CC(C(=O)NO)C(=O)N[C@@H](Cc1c[nH]c2ccccc12)C(=O)O` (stereo partly drawn) [(S)-2-(2-Hydroxycarbamoyl-4-methyl-pentanoylamino)-3-(1H-indol-3-yl)-propionic acid] returned an IC50 of 24 µM. The compound `O=C(N[C@@H](CS)C(=O)N[C@@H](Cc1c[nH]c2ccccc12)C(=O)O)OCc1ccccc1` [(S)-2-((R)-2-Benzyloxycarbonylamino-3-mercapto-propionylamino)-3-(1H-indol-3-yl)-propionic acid] (Cbz-Cys-Trp-OH) registered an IC50 of 30 µM. The compound `COC(=O)[C@H](CC(C)C)NC(=O)[C@@H](CS)NC(=O)OCc1ccccc1` [(S)-2-((S)-2-Benzyloxycarbonylamino-3-mercapto-propionylamino)-4-methyl-pentanoic acid methyl ester] registered an IC50 of 4 µM.

In the case of `COC(=O)[C@H](Cc1c[nH]c2ccccc12)NC(=O)[C@H](CS)NC(=O)OCc1ccccc1` [(S)-2-[2-((R)-Benzyloxycarbonylamino)-3-mercapto-propionylamino]-3-(1H-indol-3-yl)-propionic acid methyl ester] (Cbz-Cys-Trp-OMe), the IC50 stood at 47 µM. This IC50 is about 12-fold higher than that of the compound before.
